Values after ≈ are worked out from the molar mass of the structure shown.
Experiments:
[1] = system: DH5α-E/pAAC(6′)-Iaa; experiment: MIC, transgenic host expressing AAC(6′)-Iaa; type: cell-based, E. coli; conditions: for MIC: Escherichia coli, read-out: Minimum Inhibitory Concentration; for resistance conferred by plasmid pAAC(6′)-Iaa: transformed into E. coli strain DH5α-E
Experimental: (§1) The putative AAC(6′) aminogylcoside N6′-acetyltransferase gene from Salmonella enteritidis serovar typhimurium strain LT2, designated AAC(6′)-Iaa, was amplified by PCR and cloned into the expression vector pACSE2 (U.S. patent application Ser. No. 09/640,882 to Hall, filed Aug. 18, 2000, which is hereby incorporated by reference in its entirety). The resulting plasmid was designated pAAC(6′)-Iaa (FIG. 2A). The sequence of the AAC(6′)-Iaa coding region was determined by automated DNA sequencing and was confirmed to be identical to the sequence obtained from the incomplete genome sequence database (FIG. 2B).

[2] = system: DH5α-E/pACSE2; experiment: MIC, host with empty expression vector; type: cell-based, E. coli; conditions: for MIC: Escherichia coli, read-out: Minimum Inhibitory Concentration
Experimental: as §1

[3] = system: Salmonella enteritidis serovar typhimurium strain LT2; experiment: MIC, native Salmonella strain LT2; type: cell-based; conditions: for MIC: Salmonella enterica, read-out: Minimum Inhibitory Concentration; for sensitivity of the strain to the drug: native strain LT2
[4] = cited from earlier work; for Minimum Inhibitory Concentration, Clinical Resistance: Table 2, aminoglycosides; for Clin. = the MIC for clinical resistance: Table 1, β-lactams, unit assumed
[5] = system: host expressing Citrobacter freundii ampC gene LAT1; experiment: MIC conferred by ampC gene LAT1 cloned into common vector; type: cell-based
Source text: (§2) The plasmid-borne ampC genes shown in Table 1 (below) have been cloned into a common vector to ensure that all genes are expressed at the same level. […] That is completely expected because those genes were isolated from clinical samples and identified on the basis of conferring resistance to clinical drugs. ampC genes from two strains of Citrobacter freundii that were isolated in the 1920's, in the pre-antibiotic era, were also cloned into the same vector.

[6] = system: host expressing Citrobacter freundii ampC gene CMY2; experiment: MIC conferred by ampC gene CMY2 cloned into common vector; type: cell-based
Source text: as §2

[7] = system: host expressing Citrobacter freundii ampC gene LAT3; experiment: MIC conferred by ampC gene LAT3 cloned into common vector; type: cell-based
Source text: as §2

[8] = system: E. coli K12 ampC; conditions: gene cloned into a plasmid, effective promoter; cited from earlier work
[9] = system: plasmid-borne ampC genes CMY-2, CMY-3b, LAT-1, LAT-2, LAT-3, and LAT-4; experiment: Clinical resistance conferred by plasmid-borne ampC genes as a group; type: cell-based, Citrobacter freundii; conditions: all of CMY-2, CMY-3b, LAT-1, LAT-2, LAT-3, LAT-4
Source text: (§3) The plasmid-borne ampC genes shown in Table 1 (below) have been cloned into a common vector to ensure that all genes are expressed at the same level.

[10] = system: host expressing Citrobacter freundii ampC gene LAT4; experiment: MIC conferred by ampC gene LAT4 cloned into common vector; type: cell-based
Source text: as §2

[11] = system: host expressing Citrobacter freundii ampC gene Cfre8454; experiment: MIC conferred by ampC gene Cfre8454 cloned into common vector; type: cell-based; conditions: for Minimum Inhibitory Concentration (MIC): Cfre 8454, gene from organism isolated in the 1920's
Source text: as §2

[12] = system: No Plasmid host; experiment: MIC, host with no plasmid (Table 1); type: cell-based
Source text: as §3

[13] = system: host expressing Citrobacter freundii ampC gene CMY3b; experiment: MIC conferred by ampC gene CMY3b cloned into common vector; type: cell-based
Source text: as §2

[14] = system: host expressing Citrobacter freundii ampC gene Cfre6879; experiment: MIC conferred by ampC gene Cfre6879 cloned into common vector; type: cell-based; conditions: Cfre 6879, gene from organism isolated in the 1920's
Source text: as §2

[15] = system: host expressing Citrobacter freundii ampC gene LAT2; experiment: MIC conferred by ampC gene LAT2 cloned into common vector; type: cell-based
Source text: as §2

[16] = system: evolved E. coli ampC gene; conditions: two or three laboratory-induced mutations; cited from earlier work
[17] = S. enteritidis serovar typhimurium LT2

## NCC[C@H](O)C(=O)N[C@@H]1C[C@H](N)[C@@H](O[C@H]2O[C@H](CN)[C@@H](O)[C@H](O)[C@H]2O)[C@H](O)[C@H]1O[C@H]1O[C@H](CO)[C@@H](O)[C@H](N)[C@H]1O [Amikacin]
[1]; DH5α-E/pAAC(6′)-Iaa
  MIC: 8 µg/mL (≈ 13.7 µM)
[1]
  resistance conferred by plasmid pAAC(6′)-Iaa: not
[2]
  MIC: 0.25 µg/mL (≈ 0.427 µM)
[3]; [17]
  MIC: 4 µg/mL (≈ 6.83 µM)
[3]
  sensitivity of the strain to the drug: sensitive
[4]
  Minimum Inhibitory Concentration, Clinical Resistance: 32 µg/mL

## CC1(C)S[C@@H]2[C@H](NC(=O)[C@H](N)c3ccccc3)C(=O)N2[C@H]1C(=O)O [Ampicillin]
[5]
  Minimum Inhibitory Concentration (MIC): 1024
[6]
  Minimum Inhibitory Concentration (MIC): 1024
[7]
  Minimum Inhibitory Concentration (MIC): 1024
[8]
  clinical resistance conferred: confers clinical resistance
[9]
  clinical resistance conferred: confer clinical resistance
[10]
  Minimum Inhibitory Concentration (MIC): 1024
[11]
  Minimum Inhibitory Concentration (MIC): 2048
[12]
  Minimum Inhibitory Concentration (MIC): 2
[13]
  Minimum Inhibitory Concentration (MIC): 1024
[14]
  Minimum Inhibitory Concentration (MIC): 1024
[15]
  Minimum Inhibitory Concentration (MIC): 2048
[4]
  Clin. = the MIC for clinical resistance: 32 µg/mL

## C[C@H]1[C@H](NC(=O)/C(=N\OC(C)(C)C(=O)O)c2csc(N)n2)C(=O)N1S(=O)(=O)O [Aztreonam]
[5]
  Minimum Inhibitory Concentration (MIC): 256
[6]
  Minimum Inhibitory Concentration (MIC): 16
[7]
  Minimum Inhibitory Concentration (MIC): 64
[16]
  resistance conferred after further evolution: confer resistance
[10]
  Minimum Inhibitory Concentration (MIC): 128
[11]
  Minimum Inhibitory Concentration (MIC): 128
[13]
  Minimum Inhibitory Concentration (MIC): 128
[14]
  Minimum Inhibitory Concentration (MIC): 256
[15]
  Minimum Inhibitory Concentration (MIC): 64

## CO/N=C(\C(=O)N[C@@H]1C(=O)N2C(C(=O)O)=C(COC(C)=O)CS[C@H]12)c1csc(N)n1 [Cefotaxime]
[5]
  Minimum Inhibitory Concentration (MIC): 64
[6]
  Minimum Inhibitory Concentration (MIC): 64
[7]
  Minimum Inhibitory Concentration (MIC): 128
[9]
  clinical resistance conferred: confer clinical resistance
[10]
  Minimum Inhibitory Concentration (MIC): 256
[11]
  Minimum Inhibitory Concentration (MIC): 128
[13]
  Minimum Inhibitory Concentration (MIC): 64
[14]
  Minimum Inhibitory Concentration (MIC): 128
[15]
  Minimum Inhibitory Concentration (MIC): 64
[4]
  Clin. = the MIC for clinical resistance: 64 µg/mL

## CC(C)(O/N=C(\C(=O)N[C@@H]1C(=O)N2C(C(=O)[O-])=C(C[n+]3ccccc3)CS[C@H]12)c1csc(N)n1)C(=O)O [Ceftazidime]
[5]
  Minimum Inhibitory Concentration (MIC): 256
[6]
  Minimum Inhibitory Concentration (MIC): 128
[7]
  Minimum Inhibitory Concentration (MIC): 256
[9]
  clinical resistance conferred: confer clinical resistance
[16]
  resistance conferred after further evolution: confer resistance
[10]
  Minimum Inhibitory Concentration (MIC): 256
[11]
  Minimum Inhibitory Concentration (MIC): 8
[11]; Cfre8454, without any additional mutations
  resistance conferred: does not confer clinical resistance
[12]
  Minimum Inhibitory Concentration (MIC): 0.25
[13]
  Minimum Inhibitory Concentration (MIC): 256
[14]
  Minimum Inhibitory Concentration (MIC): 512
[15]
  Minimum Inhibitory Concentration (MIC): 256
[4]
  Clin. = the MIC for clinical resistance: 32 µg/mL

## CO/N=C(\C(=O)N[C@@H]1C(=O)N2C(C(=O)O)=C(COC(N)=O)CS[C@H]12)c1ccco1 [Cefuroxime]
[5]
  Minimum Inhibitory Concentration (MIC): 2048
[6]
  Minimum Inhibitory Concentration (MIC): 256
[7]
  Minimum Inhibitory Concentration (MIC): 1024
[8]
  clinical resistance conferred: confers clinical resistance
[9]
  clinical resistance conferred: confer clinical resistance
[10]
  Minimum Inhibitory Concentration (MIC): 2048
[11]
  Minimum Inhibitory Concentration (MIC): 512
[12]
  Minimum Inhibitory Concentration (MIC): 8
[13]
  Minimum Inhibitory Concentration (MIC): 1024
[14]
  Minimum Inhibitory Concentration (MIC): 512
[15]
  Minimum Inhibitory Concentration (MIC): 256
[4]
  Clin. = the MIC for clinical resistance: 32 µg/mL

## CC(=O)OCC1=C(C(=O)O)N2C(=O)[C@@H](NC(=O)Cc3cccs3)[C@H]2SC1 [Cephalothin]
[5]
  Minimum Inhibitory Concentration (MIC): 4096
[6]
  Minimum Inhibitory Concentration (MIC): 1024
[7]
  Minimum Inhibitory Concentration (MIC): 2048
[8]
  clinical resistance conferred: confers clinical resistance
[9]
  clinical resistance conferred: confer clinical resistance
[10]
  Minimum Inhibitory Concentration (MIC): 4096
[11]
  Minimum Inhibitory Concentration (MIC): 2048
[12]
  Minimum Inhibitory Concentration (MIC): 4
[13]
  Minimum Inhibitory Concentration (MIC): 2048
[14]
  Minimum Inhibitory Concentration (MIC): 1024
[15]
  Minimum Inhibitory Concentration (MIC): 4096
[4]
  Clin. = the MIC for clinical resistance: 32 µg/mL

## NC[C@H]1O[C@H](O[C@H]2[C@H](O)[C@@H](O[C@H]3O[C@H](CO)[C@@H](O)[C@H](N)[C@H]3O)[C@H](N)C[C@@H]2N)[C@H](O)[C@@H](O)[C@@H]1O [Kanamycin]
[1]; DH5α-E/pAAC(6′)-Iaa
  MIC: 32 µg/mL (≈ 66 µM)
[2]
  MIC: 0.125 µg/mL (≈ 0.258 µM)
[3]; [17]
  MIC: 4 µg/mL (≈ 8.26 µM)

## CCN1CCN(C(=O)N[C@@H](C(=O)N[C@@H]2C(=O)N3[C@@H]2SC(C)(C)[C@@H]3C(=O)O)c2ccccc2)C(=O)C1=O [Pipericillin]
[5]
  Minimum Inhibitory Concentration (MIC): 128
[6]
  Minimum Inhibitory Concentration (MIC): 256
[7]
  Minimum Inhibitory Concentration (MIC): 512
[9]
  clinical resistance conferred: confer clinical resistance
[16]
  resistance conferred after further evolution: confer resistance
[10]
  Minimum Inhibitory Concentration (MIC): 512
[11]
  Minimum Inhibitory Concentration (MIC): 512
[12]
  Minimum Inhibitory Concentration (MIC): 2
[13]
  Minimum Inhibitory Concentration (MIC): 128
[14]
  Minimum Inhibitory Concentration (MIC): 512
[15]
  Minimum Inhibitory Concentration (MIC): 256
[4]
  Clin. = the MIC for clinical resistance: 128 µg/mL

## CO[C@@]1(NC(=O)C(C(=O)O)c2ccsc2)C(=O)N2[C@@H](C(=O)O)C(C)(C)S[C@@H]21 (some centres unmarked) [Temocillin]
[5]
  Minimum Inhibitory Concentration (MIC): 64
[6]
  Minimum Inhibitory Concentration (MIC): 32
[7]
  Minimum Inhibitory Concentration (MIC): 64
[9]
  clinical resistance conferred: confer clinical resistance
[16]
  resistance conferred after further evolution: confer resistance
[10]
  Minimum Inhibitory Concentration (MIC): 64
[11]
  Minimum Inhibitory Concentration (MIC): 32
[12]
  Minimum Inhibitory Concentration (MIC): 4
[13]
  Minimum Inhibitory Concentration (MIC): 32
[14]
  Minimum Inhibitory Concentration (MIC): 32
[15]
  Minimum Inhibitory Concentration (MIC): 32
[4]
  Clin. = the MIC for clinical resistance: 32 µg/mL

## NC[C@H]1O[C@H](O[C@H]2[C@H](O)[C@@H](O[C@H]3O[C@H](CO)[C@@H](O)[C@H](N)[C@H]3O)[C@H](N)C[C@@H]2N)[C@H](N)C[C@@H]1O [Tobramycin]
[1]; DH5α-E/pAAC(6′)-Iaa
  MIC: 16 µg/mL (≈ 34.2 µM)
[1]
  resistance conferred by plasmid pAAC(6′)-Iaa: conferred resistance
[2]
  MIC: 0.25 µg/mL (≈ 0.535 µM)
[3]; [17]
  MIC: 4 µg/mL (≈ 8.56 µM)
[3]
  sensitivity of the strain to the drug: sensitive
[4]
  Minimum Inhibitory Concentration, Clinical Resistance: 8 µg/mL

## Gentamycin
[1]; DH5α-E/pAAC(6′)-Iaa
  Minimum Inhibitory Concentration: 0.5 µg/mL
[1]
  resistance conferred by plasmid pAAC(6′)-Iaa: not
[2]
  Minimum Inhibitory Concentration: 0.25 µg/mL
[3]; [17]
  Minimum Inhibitory Concentration: 2 µg/mL
[3]
  sensitivity of the strain to the drug: sensitive
[4]
  Minimum Inhibitory Concentration, Clinical Resistance: 8 µg/mL
